Experimental data reported in the NIST ThermoML archive (doi:10.1021/je7001122).
“And” between values parts separate entries of the source, which are not always exact repeats. Equal entries are not always repeated. Numbers after ± are expanded uncertainties.

Details: Liquid

CCCCCCCCCC [decane]
Transpiration method
Details | vapor or sublimation pressure [kPa]
323.94 K | 0.9556 ± 0.054
353.57 K | 4.252 ± 0.22
373.15 K | 10.05 ± 0.52
402.36 K | 29.48 ± 1.5
402.48 K | 29.36 ± 1.5

CCCCCCCCCCCCCCCCCCCCCCCCCCCC [octacosane]
Transpiration method
Details | vapor or sublimation pressure
354.01 K | 2.14e-06 ± 2.6e-07 kPa
373.92 K | 1.77e-05 ± 1.2e-06 kPa and 1.8e-05 ± 1.2e-06 kPa
393.65 K | 0.000122 ± 7e-06 kPa and 0.000126 ± 7e-06 kPa
413.5 K | 0.000633 ± 3.5e-05 kPa and 0.000651 ± 3.6e-05 kPa and 0.00063 ± 3.5e-05 kPa
433.32 K | 0.00293 ± 0.00016 kPa
453.28 K | 0.01264 ± 0.00068 kPa
473.64 K | 0.04404 ± 0.0024 kPa
494.8 K | 0.1554 ± 0.0081 kPa
516.89 K | 0.4272 ± 0.05 kPa

CCCCCCCCCCCCCCCCCCCCCCCC [tetracosane]
vapor or sublimation pressure
Details | Diaphragm manometer | Transpiration method
333.46 K | – | 4.3e-06 ± 5e-07 kPa
353.43 K | – | 4.35e-05 ± 2.4e-06 kPa
353.97 K | – | 4.5e-05 ± 2.5e-06 kPa
373.17 K | 0.000296 ± 2.1e-05 kPa | 0.000307 ± 1.6e-05 kPa
373.61 K | 0.000322 ± 2.2e-05 kPa | 0.000316 ± 1.7e-05 kPa
379.15 K | 0.000531 ± 2.8e-05 kPa | 0.000524 ± 3.1e-05 kPa
393.2 K | 0.001727 ± 5.9e-05 kPa | 0.001725 ± 9e-05 kPa and 0.001721 ± 9e-05 kPa
397.55 K | 0.002432 ± 0.0001 kPa | 0.002406 ± 0.00014 kPa
414.68 K | 0.008547 ± 0.00027 kPa | 0.00843 ± 0.00045 kPa
417.75 K | 0.01055 ± 0.00032 kPa | 0.0105 ± 0.00055 kPa
433.1 K | 0.02857 ± 0.0009 kPa | –
452.6 K | 0.08931 ± 0.0025 kPa | –
